Results taken from EP2766361B1, “8-CARBAMOYL-2-(2,3-DISUBSTITUTED PYRID-6-YL)-1,2,3,4-TETRAHYDROISOQUINOLINE DERIVATIVES AS APOPTOSIS-INDUCING AGENTS FOR THE TREATMENT OF CANCER AND IMMUNE AND AUTOIMMUNE DISEASES” (priority 2011, dated 2013).

Assays:
[1] = tested on: mouse FL5.12 cells transfected with Bcl-xL; assay: FL5.12 cellular assay (cell viability, CellTiter-Glo); assay type: cell-based; details: IL-3-depleted, 3% FBS assay media, 24 hours, read-out: FL5.12 Bcl-xL, -IL3, EC50
Description: Cell viability was assayed using the CellTiter-Glo assay (Promega Corp., Madison, WI) according to the manufacturer instructions. Individual determinations were the result of duplicate values. […] Table 2. In Vitro Data

[2] = tested on: Molt-4 human acute lymphoblastic leukemia cells; assay: Molt-4 cellular assay (cell viability, MTS); assay type: cell-based; details: 10% human serum, 48 hours
Description: Molt-4 (ATCC, Manassas, VA) human acute lymphoblastic leukemia cells were plated 50,000 cells per well in 96-well tissue culture plates in a total volume of 100 µL tissue culture medium supplemented with 10% human serum (Invitrogen, Carlsbad, CA) and treated with a 3-fold serial dilution of the compounds of interest from 5 µM to […]. Each concentration was tested in duplicate at least 3 separate times. The number of viable cells following 48 hours of compound treatment was determined using the CellTiter 96® Aqueous non-radioactive cell proliferation MTS assay according to manufacturer's recommendations (Promega Corp., Madison, WI).

SMILES: COCCOC12CC3CC(CC(Cn4ncc(-c5ccc(N6CCc7cccc(C(=O)Nc8nc9ccccc9s8)c7C6)nc5C(=O)O)c4C)(C3)C1)C2 [Example 45, 6-[8-(1,3-benzothiazol-2-ylcarbamoyl)-3,4-dihydroisoquinolin-2(1H)-yl]-3-(1-{[3-(2-methoxyethoxy)tricyclo[3.3.1.1^3,7]dec-1-yl]methyl}-5-methyl-1H-pyrazol-4-yl)pyridine-2-carboxylic acid]
- EC50 [1]: 0.9 nM
- EC50 [2]: 4 nM

SMILES: O=C(Nc1nc2ccccc2s1)c1cccc2c1CN(c1ccc(-c3cnn(CC4C5CC6CC(C5)CC4C6)c3)c(C(=O)O)n1)CC2 (stereo not drawn) [Example 10, 6-[8-(1,3-benzothiazol-2-ylcarbamoyl)-3,4-dihydroisoquinolin-2(1H)-yl]-3-[1-(tricyclo[3.3.1.1^3,7]dec-2-ylmethyl)-1H-pyrazol-4-yl]pyridine-2-carboxylic acid]
- EC50 [1]: 29 nM
- EC50 [2]: 487 nM

SMILES: Cc1c(-c2ccc(N3CCc4cccc(C(=O)Nc5nc6ccccc6s5)c4C3)nc2C(=O)O)cc(C#N)n1CC12CC3CC(CC(C3)C1)C2 [Example 23, 6-[8-(1,3-benzothiazol-2-ylcarbamoyl)-3,4-dihydroisoquinolin-2(1H)-yl]-3-[5-cyano-2-methyl-1-(tricyclo[3.3.1.1^3,7]dec-1-ylmethyl)-1H-pyrrol-3-yl]pyridine-2-carboxylic acid]
- EC50 [1]: < 1 nM
- EC50 [2]: 16 nM

SMILES: Cc1c(-c2ccc(N3CCc4cccc(C(=O)Nc5nc6cccnc6s5)c4C3)nc2C(=O)O)cnn1CC12CC3CC(CC(C3)O1)C2 [Example 67, 3-[5-methyl-1-(2-oxatricyclo[3.3.1.1^3,7]dec-1-ylmethyl)-1H-pyrazol-4-yl]-6-[8-([1,3]thiazolo[5,4-b]pyridin-2-ylcarbamoyl)-3,4-dihydroisoquinolin-2(1H)-yl]pyridine-2-carboxylic acid]
- EC50 [1]: 9 nM

SMILES: Cc1c(-c2ccc(N3CCc4cccc(C(=O)Nc5nc6ccncc6s5)c4C3)nc2C(=O)O)cnn1CC12CC3CC(CC(C3)C1)C2 [Example 78, 3-[5-methyl-1-(tricyclo[3.3.1.1^3,7]dec-1-ylmethyl)-1H-pyrazol-4-yl]-6-[8-([1,3]thiazolo[5,4-c]pyridin-2-ylcarbamoyl)-3,4-dihydroisoquinolin-2(1H)-yl]pyridine-2-carboxylic acid]
- EC50 [1]: 3 nM

SMILES: O=C(Nc1nc2ccccc2s1)c1cccc2c1CN(c1ccc(-c3cnn(CC45CC6CC(CC(Br)(C6)C4)C5)c3)c(C(=O)O)n1)CC2 [Example 11, 6-[8-(1,3-benzothiazol-2-ylcarbamoyl)-3,4-dihydroisoquinolin-2(1H)-yl]-3-(1-{[3-bromotricyclo[3.3.1.1^3,7]dec-1-yl]methyl}-1H-pyrazol-4-yl)pyridine-2-carboxylic acid]
- EC50 [1]: 11 nM

SMILES: Cc1cc(OCC23CC4CC(CC(C4)C2)C3)ccc1-c1ccc(N2CCc3cccc(C(=O)Nc4nc5ccccc5s4)c3C2)nc1C(=O)O [Example 20, 6-[8-(1,3-benzothiazol-2-ylcarbamoyl)-3,4-dihydroisoquinolin-2(1H)-yl]-3-{2-methyl-4-[tricyclo[3.3.1.1^3,7]dec-1-ylmethoxy]phenyl}pyridine-2-carboxylic acid]
- EC50 [1]: > 1000 nM

SMILES: O=C(Nc1nc2ccccc2s1)c1cccc2c1CN(c1ccc(-c3ccnc(OCC45CC6CC(CC(C6)C4)C5)c3)c(C(=O)O)n1)CC2 [Example 25, 6-[8-(1,3-benzothiazol-2-ylcarbamoyl)-3,4-dihydroisoquinolin-2(1H)-yl]-2'-(tricyclo[3.3.1.1^3,7]dec-1-ylmethoxy)-3,4'-bipyridine-2-carboxylic acid]
- EC50 [1]: > 1000 nM

SMILES: COC12CC3CC(CC(Cn4ncc(-c5ccc(N6CCc7cccc(C(=O)Nc8nc9ccccc9s8)c7C6)nc5C(=O)NS(=O)(=O)C(F)(F)F)c4C)(C3)C1)C2 [Example 40, N-(1,3-benzothiazol-2-yl)-2-[5-(1-{[3-methoxytricyclo[3.3.1.1^3,7]dec-1-yl]methyl}-5-methyl-1H-pyrazol-4-yl)-6-{[(trifluoromethyl)sulfonyl]carbamoyl}pyridin-2-yl]-1,2,3,4-tetrahydroisoquinoline-8-carboxamide]
- EC50 [1]: 47 nM

SMILES: COC12CC3CC(CC(Cn4cc(-c5ccc(N6CCc7cccc(C(=O)Nc8nc9ccccc9s8)c7C6)nc5C(=O)O)cn4)(C3)C1)C2 [Example 7, 6-[8-(1,3-benzothiazol-2-ylcarbamoyl)-3,4-dihydroisoquinolin-2(1H)-yl]-3-(1-{[3-methoxytricyclo[3.3.1.1^3,7]dec-1-yl]methyl}-1H-pyrazol-4-yl)pyridine-2-carboxylic acid]
- EC50 [1]: 37 nM

SMILES: Cc1c(OCC23CC4CC(CC(C4)C2)C3)cccc1-c1ccc(N2CCc3cccc(C(=O)Nc4nc5ccccc5s4)c3C2)nc1C(=O)O [Example 21, 6-[8-(1,3-benzothiazol-2-ylcarbamoyl)-3,4-dihydroisoquinolin-2(1H)-yl]-3-{2-methyl-3-[tricyclo[3.3.1.1^3,7]dec-1-ylmethoxy]phenyl}pyridine-2-carboxylic acid]
- EC50 [1]: 343 nM

SMILES: Cc1c(-c2ccc(N3CCc4cccc(C(=O)Nc5nc6ccccc6s5)c4C3)nc2C(=O)O)cnn1CC12CC3CC(C)(CC(C)(C3)C1)C2 [Example 32, 6-[8-(1,3-benzothiazol-2-ylcarbamoyl)-3,4-dihydroisoquinolin-2(1H)-yl]-3-(1-{[3,5-dimethyltricyclo[3.3.1.1^3,7]dec-1-yl]methyl}-5-methyl-1H-pyrazol-4-yl)pyridine-2-carboxylic acid]
- EC50 [1]: 1 nM

SMILES: Cc1c(-c2ccc(N3CCc4cccc(C(=O)Nc5nc6ncccc6s5)c4C3)nc2C(=O)O)cnn1CC12CC3CC(CC(C3)C1)C2 [Example 30, 3-[5-methyl-1-(tricyclo[3.3.1.1^3,7]dec-1-ylmethyl)-1H-pyrazol-4-yl]-6-[8-([1,3]thiazolo[4,5-b]pyridin-2-ylcarbamoyl)-3,4-dihydroisoquinolin-2(1H)-yl]pyridine-2-carboxylic acid]
- EC50 [1]: 49 nM

SMILES: Cc1c(-c2ccc(N3CCc4cccc(C(=O)Nc5nc6ccccc6s5)c4C3)nc2C(=O)O)nnn1CC12CC3CC(CC(C3)O1)C2 [Example 66, 6-[8-(1,3-benzothiazol-2-ylcarbamoyl)-3,4-dihydroisoquinolin-2(1H)-yl]-3-[5-methyl-1-(2-oxatricyclo[3.3.1.1^3,7]dec-1-ylmethyl)-1H-1,2,3-triazol-4-yl]pyridine-2-carboxylic acid]
- EC50 [1]: 26 nM

SMILES: COC1(Cn2ncc(-c3ccc(N4CCc5cccc(C(=O)Nc6nc7ccccc7s6)c5C4)nc3C(=O)O)c2C)CCCC2(CC2)C1 (stereo not drawn) [Example 79, 6-[8-(1,3-benzothiazol-2-ylcarbamoyl)-3,4-dihydroisoquinolin-2(1H)-yl]-3-{1-[(5-methoxyspiro[2.5]oct-5-yl)methyl]-5-methyl-1H-pyrazol-4-yl}pyridine-2-carboxylic acid]
- EC50 [1]: 0.9 nM

SMILES: Cc1c(-c2ccc(N3CCc4cccc(C(=O)Nc5nc6ccccc6s5)c4C3)nc2C(=O)O)ccnc1N(C)C1CCCCCCC1 [Example 61, 6-[8-(1,3-benzothiazol-2-ylcarbamoyl)-3,4-dihydroisoquinolin-2(1H)-yl]-2'-[cyclooctyl(methyl)amino]-3'-methyl-3,4'-bipyridine-2-carboxylic acid]
- EC50 [1]: 10 nM

SMILES: Cc1c(-c2ccc(N3CCc4cccc(C(=O)Nc5nc6ccccc6s5)c4C3)nc2C(=O)O)cccc1S(=O)(=O)N(C)C1C2CC3CC(C2)CC1C3 (stereo not drawn) [Example 69, 6-[8-(1,3-benzothiazol-2-ylcarbamoyl)-3,4-dihydroisoquinolin-2(1H)-yl]-3-(2-methyl-3-{methyl[tricyclo[3.3.1.1^3,7]dec-2-yl]sulfamoyl}phenyl)pyridine-2-carboxylic acid]
- EC50 [1]: 449 nM

SMILES: Cc1c(-c2ccc(N3CCc4cccc(C(=O)Nc5nc6ccccc6s5)c4C3)nc2C(=O)O)cc(C#N)n1CC12CC3CC(CC(C3)O1)C2 [Example 71, 6-[8-(1,3-benzothiazol-2-ylcarbamoyl)-3,4-dihydroisoquinolin-2(1H)-yl]-3-[5-cyano-2-methyl-1-(2-oxatricyclo[3.3.1.1^3,7]dec-1-ylmethyl)-1H-pyrrol-3-yl]pyridine-2-carboxylic acid]
- EC50 [1]: 1 nM

SMILES: COCCOCCOC12CC3CC(CC(Cn4ncc(-c5ccc(N6CCc7cccc(C(=O)Nc8nc9ccccc9s8)c7C6)nc5C(=O)O)c4C)(C3)C1)C2 [Example 63, 6-[8-(1,3-benzothiazol-2-ylcarbamoyl)-3,4-dihydroisoquinolin-2(1H)-yl]-3-[1-({3-[2-(2-methoxyethoxy)ethoxy]tricyclo[3.3.1.1^3,7]dec-1-yl}methyl)-5-methyl-1H-pyrazol-4-yl]pyridine-2-carboxylic acid]
- EC50 [1]: 3 nM

SMILES: COC12CC3CC(CC(Cn4ncc(-c5ccc(N6CCc7cccc(C(=O)Nc8nc9ccccc9s8)c7C6)nc5C(=O)NS(=O)(=O)N5CCOCC5)c4C)(C3)C1)C2 [Example 39, N-(1,3-benzothiazol-2-yl)-2-{5-(1-{[3-methoxytricyclo[3.3.1.1^3,7]dec-1-yl]methyl}-5-methyl-1 H-pyrazol-4-yl)-6-[(morpholin-4-ylsulfonyl)carbamoyl]pyridin-2-yl}-1,2,3,4-tetrahydroisoquinoline-8-carboxamide]
- EC50 [1]: 0.6 nM

SMILES: O=C(Nc1nc2ccccc2s1)c1cccc2c1CN(c1ccc(-c3cnn(CC45CC6CC(C4)CC(N4CCS(=O)(=O)CC4)(C6)C5)c3)c(C(=O)O)n1)CC2 [Example 33, 6-[8-(1,3-benzothiazol-2-ylcarbamoyl)-3,4-dihydroisoquinolin-2(1H)-yl]-3-(1-{[3-(1,1-dioxidothiomorpholin-4-yl)tricyclo[3.3.1.1^3,7]dec-1-yl]methyl}-1H-pyrazol-4-yl)pyridine-2-carboxylic acid]
- EC50 [1]: > 1000 nM
